Square brackets hold non-standard residues; d marks the D form. Peptide text beside a SMILES is read from it. NMeI = CC[C@H](C)[C@H](NC)C(=O)O; Abu = CC[C@H](N)C(=O)O

For the first data set, the system named is PC-12. The data set is described as follows: Cytotoxicity against rat PC-12 cells assessed as reduction in cell viability at 20 uM measured after 6 hrs by MTT assay. Type of data set: cell-based. The conditions noted are these: pc-12, 6 h.
With `CC[C@H](C)[C@H](NC(=O)[C@@H](NC(=O)[C@@H](N)C(C)C)C(C)C)C(=O)N[C@@H](CC(=O)O)C(=O)O` (H-VVID-OH), the Activity result is recorded as “Non-Toxic”.
The same measure, in the same setting: the same measure for `CC[C@H](NC(=O)[C@@H](N)CC)C(=O)N[C@H](C(=O)N[C@@H](C)C(=O)O)[C@@H](C)CC` (H-[Abu][Abu]IA-OH): “Non-Toxic”.

The next data set deals with Amyloid-beta precursor protein (Homo sapiens) (UniProt P05067). The data set is described as follows: Inhibition of amyloid beta (1 to 42) (unknown origin) assessed as reduction in peptide aggregation at 4 uM measured after 24 hrs by thioflavin-T fluorescence assay relative to control.
Sequence of Amyloid-beta precursor protein (Homo sapiens) (P05067 whole entry): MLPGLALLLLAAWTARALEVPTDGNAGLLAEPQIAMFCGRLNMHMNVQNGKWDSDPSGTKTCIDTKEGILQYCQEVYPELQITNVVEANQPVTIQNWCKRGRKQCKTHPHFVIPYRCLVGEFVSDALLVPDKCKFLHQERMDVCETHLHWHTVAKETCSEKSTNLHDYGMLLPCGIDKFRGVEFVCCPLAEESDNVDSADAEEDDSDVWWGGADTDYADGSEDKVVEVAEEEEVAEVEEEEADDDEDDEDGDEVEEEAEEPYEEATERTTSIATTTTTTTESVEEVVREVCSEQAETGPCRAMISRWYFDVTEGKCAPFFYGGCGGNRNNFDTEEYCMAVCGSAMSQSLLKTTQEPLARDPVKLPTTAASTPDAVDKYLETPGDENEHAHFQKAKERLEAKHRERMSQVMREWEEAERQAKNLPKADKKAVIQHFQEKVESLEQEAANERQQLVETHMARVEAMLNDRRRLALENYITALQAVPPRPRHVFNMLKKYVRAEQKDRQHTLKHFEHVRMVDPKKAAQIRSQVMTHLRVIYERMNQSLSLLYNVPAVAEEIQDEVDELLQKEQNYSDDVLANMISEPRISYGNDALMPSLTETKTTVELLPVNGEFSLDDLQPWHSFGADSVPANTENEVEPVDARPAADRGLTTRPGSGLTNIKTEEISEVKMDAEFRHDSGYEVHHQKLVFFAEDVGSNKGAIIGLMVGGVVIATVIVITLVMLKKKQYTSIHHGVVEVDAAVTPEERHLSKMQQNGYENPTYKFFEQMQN
Conditions: not given
Turning to `CC[C@H](C)[C@H](NC(=O)[C@@H](NC(=O)[C@@H](N)C(C)C)C(C)C)C(=O)N[C@@H](C)C(=O)O` (H-VVIA-OH), the inhibition worked out at 60.6%.
The same measure, in the same setting: next, `CC[C@H](C)[C@H](NC(=O)[C@@H](NC(=O)[C@@H](N)C(C)C)C(C)C)C(=O)N[C@@H](CC(=O)O)C(=O)O` (H-VVID-OH): 100%; `CC[C@H](C)[C@@H](C(=O)N[C@@H](C)C(=O)O)N(C)C(=O)[C@@H](NC(=O)[C@@H](N)C(C)C)C(C)C` (H-VV[NMeI]A-OH): 83.4%.
Same read-out and setting: next, `CC[C@H](NC(=O)[C@@H](N)CC)C(=O)N[C@H](C(=O)N[C@@H](C)C(=O)O)[C@@H](C)CC` (H-[Abu][Abu]IA-OH): 90.2%.

The target is the same in the next data set. Description: Inhibition of amyloid beta (1 to 42) (unknown origin) assessed as reduction in peptide aggregation at 2 uM measured after 24 hrs by thioflavin-T fluorescence assay relative to control.
Conditions: not given
For `CC[C@H](C)[C@H](NC(=O)[C@@H](NC(=O)[C@@H](N)C(C)C)C(C)C)C(=O)N[C@@H](C)C(=O)O` (H-VVIA-OH), the inhibition worked out at 33.9%.
As to `CC[C@H](C)[C@H](NC(=O)[C@@H](NC(=O)[C@@H](N)C(C)C)C(C)C)C(=O)N[C@@H](CC(=O)O)C(=O)O` (H-VVID-OH), the inhibition came to 82%.
The same measure, in the same setting: the same measure for `CC[C@H](C)[C@@H](C(=O)N[C@@H](C)C(=O)O)N(C)C(=O)[C@@H](NC(=O)[C@@H](N)C(C)C)C(C)C` (H-VV[NMeI]A-OH): 80.6%; for `CC[C@H](NC(=O)[C@@H](N)CC)C(=O)N[C@H](C(=O)N[C@@H](C)C(=O)O)[C@@H](C)CC` (H-[Abu][Abu]IA-OH): 97.7%.

The next data set relates to PC-12. The data set is described as follows: Neuroprotective activity against amyloid beta 42-induced toxicity in rat PC-12 cells assessed as cell viability at 4 uM measured after 6 hrs by MTT assay (reference value: 74.05%). Type of data set: functional. The conditions noted are these: read-out: Activity.
Turning to `CC[C@H](C)[C@H](NC(=O)[C@@H](NC(=O)[C@@H](N)C(C)C)C(C)C)C(=O)N[C@@H](C)C(=O)O` (H-VVIA-OH), the viability at 4 µM turned out to be 90.5%.
Same read-out and setting: the same measure for `CC[C@H](C)[C@H](NC(=O)[C@@H](NC(=O)[C@@H](N)C(C)C)C(C)C)C(=O)N[C@@H](CC(=O)O)C(=O)O` (H-VVID-OH): 98.7%.
On the same count and under the same terms, the same measure for `CC[C@H](C)[C@@H](C(=O)N[C@@H](C)C(=O)O)N(C)C(=O)[C@@H](NC(=O)[C@@H](N)C(C)C)C(C)C` (H-VV[NMeI]A-OH): 92.9%; for `CC[C@H](NC(=O)[C@@H](N)CC)C(=O)N[C@H](C(=O)N[C@@H](C)C(=O)O)[C@@H](C)CC` (H-[Abu][Abu]IA-OH): 100%.

Test system in a further data set: not listed separately
Description: Effective permeability of compound in pH 8 PBS buffer by PAMPA-BBB assay.
Conditions: not given
Type of data set: ADME.
Consider `CC[C@H](C)[C@H](NC(=O)[C@@H](NC(=O)[C@@H](N)C(C)C)C(C)C)C(=O)N[C@@H](C)C(=O)O` (H-VVIA-OH), for which the Peff entry is reported as “Permeable”.
Regarding `CC[C@H](C)[C@@H](C(=O)N[C@@H](C)C(=O)O)N(C)C(=O)[C@@H](NC(=O)[C@@H](N)C(C)C)C(C)C` (H-VV[NMeI]A-OH), the Peff entry was “Permeable”.

The next data set has as its system Cortical neurone. Description: Cytotoxicity against rat primary cortical neuron assessed as reduction in cell viability at 20 uM measured after 6 hrs by MTT assay. Type of data set: cell-based.
Conditions: not given
In the case of `CC[C@H](C)[C@H](NC(=O)[C@@H](NC(=O)[C@@H](N)C(C)C)C(C)C)C(=O)N[C@@H](CC(=O)O)C(=O)O` (H-VVID-OH), the Activity result is “Non-Toxic”.
On the same count and under the same terms, the same measure for `CC[C@H](NC(=O)[C@@H](N)CC)C(=O)N[C@H](C(=O)N[C@@H](C)C(=O)O)[C@@H](C)CC` (H-[Abu][Abu]IA-OH): “Non-Toxic”.

The subject of the next data set is PC-12. The data set is described as follows: Neuroprotective activity against amyloid beta 42-induced toxicity in rat PC-12 cells assessed as cell viability at 10 uM measured after 6 hrs by MTT assay (reference value: 74.05%). To be noted: read-out: Activity. It counts as functional.
With `CC[C@H](C)[C@H](NC(=O)[C@@H](NC(=O)[C@@H](N)C(C)C)C(C)C)C(=O)N[C@@H](C)C(=O)O` (H-VVIA-OH), the viability at 10 µM is 93.6%.
Consider `CC[C@H](C)[C@H](NC(=O)[C@@H](NC(=O)[C@@H](N)C(C)C)C(C)C)C(=O)N[C@@H](CC(=O)O)C(=O)O` (H-VVID-OH), for which the viability at 10 µM was determined as 95.8%.
Same read-out and setting: the same measure for `CC[C@H](C)[C@@H](C(=O)N[C@@H](C)C(=O)O)N(C)C(=O)[C@@H](NC(=O)[C@@H](N)C(C)C)C(C)C` (H-VV[NMeI]A-OH): 100%; for `CC[C@H](NC(=O)[C@@H](N)CC)C(=O)N[C@H](C(=O)N[C@@H](C)C(=O)O)[C@@H](C)CC` (H-[Abu][Abu]IA-OH): 92.1%.

The target in a further data set is Amyloid-beta precursor protein (Homo sapiens) (UniProt P05067). The data set is described as follows: Inhibition of amyloid beta (1 to 42) (unknown origin) assessed as reduction in peptide aggregation at 10 uM measured after 24 hrs by thioflavin-T fluorescence assay relative to control.
Conditions: not given
Consider `CC[C@H](C)[C@H](NC(=O)[C@@H](NC(=O)[C@@H](N)C(C)C)C(C)C)C(=O)N[C@@H](C)C(=O)O` (H-VVIA-OH), for which the inhibition was 66.2%.
Turning to `CC[C@H](C)[C@H](NC(=O)[C@@H](NC(=O)[C@@H](N)C(C)C)C(C)C)C(=O)N[C@@H](CC(=O)O)C(=O)O` (H-VVID-OH), the inhibition was determined as 100%.
Still for that read-out and setting: next, `CC[C@H](C)[C@@H](C(=O)N[C@@H](C)C(=O)O)N(C)C(=O)[C@@H](NC(=O)[C@@H](N)C(C)C)C(C)C` (H-VV[NMeI]A-OH): 100%; `CC[C@H](NC(=O)[C@@H](N)CC)C(=O)N[C@H](C(=O)N[C@@H](C)C(=O)O)[C@@H](C)CC` (H-[Abu][Abu]IA-OH): 88.7%.

In a further data set the test system is PC-12. Description: Neuroprotective activity against amyloid beta 42-induced toxicity in rat PC-12 cells assessed as cell viability at 2 uM measured after 6 hrs by MTT assay (reference value: 74.05%). It counts as functional. The conditions noted are these: read-out: Activity.
For `CC[C@H](C)[C@H](NC(=O)[C@@H](NC(=O)[C@@H](N)C(C)C)C(C)C)C(=O)N[C@@H](C)C(=O)O` (H-VVIA-OH), the viability at 2 µM is 78.9%.
Still for that read-out and setting: the same measure for `CC[C@H](C)[C@H](NC(=O)[C@@H](NC(=O)[C@@H](N)C(C)C)C(C)C)C(=O)N[C@@H](CC(=O)O)C(=O)O` (H-VVID-OH): 100%.
In the case of `CC[C@H](C)[C@@H](C(=O)N[C@@H](C)C(=O)O)N(C)C(=O)[C@@H](NC(=O)[C@@H](N)C(C)C)C(C)C` (H-VV[NMeI]A-OH), the viability at 2 µM stood at 88.4%.
Still for that read-out and setting: next, `CC[C@H](NC(=O)[C@@H](N)CC)C(=O)N[C@H](C(=O)N[C@@H](C)C(=O)O)[C@@H](C)CC` (H-[Abu][Abu]IA-OH): 100%.

These data come from ChEMBL document CHEMBL4732135, “Structural and mechanistic insights into the inhibition of amyloid-β aggregation by Aβ fragment derived synthetic peptides” (Eur J Med Chem, 2021).
